Like-named read-outs stand apart in the source and are kept apart here.
Assays:
[1] = test system: T. b. brucei Lab 110 EATRO (pentamidine-sensitive); assay: In vitro antitrypanosomal activity, T.b. brucei Lab 110 EATRO; type: cell-based, Trypanosoma brucei brucei; settings: Trypanosoma brucei; Table S1; from IC50 of Table 1; read-out: pIC50 T.b. brucei (converted)
Description: (§5) The in vitro assays with the two isolates of T. brucei were conducted according to previously described procedures [14].

[2] = test system: T. b. rhodesiense KETRi 243 (melarsoprol, pentamidine- and diminazene diaceturate-resistant); assay: In vitro antitrypanosomal activity, T.b. rhodesiense KETRI 243; type: cell-based, Trypanosoma brucei rhodesiense; settings: Trypanosoma brucei, RHODESIENSE; Table S1; from IC50 of Table 1; read-out: pIC50 T.b. rhod (converted)
Description: (§6) The anti-T. cruzi activity was determined using intracellular amastigote forms of T. cruzi Tulahuen strain C2C4 in rat skeletal myoblasts (L6 cells) as described previously [24]. The anti-L. donovani activity was determined using the amastigotes of L. donovani strain MHOM-ET-67/L82 as described previously [24]. […] The cytotoxicity assays against rat skeletal myoblast L6-cells were performed as described previously [24].

[3] = test system: intracellular amastigote forms of T. cruzi Tulahuen strain C2C4 in rat skeletal myoblasts (L6 cells); assay: In vitro anti-T. cruzi activity; type: cell-based, Trypanosoma cruzi; settings: Trypanosoma cruzi, TULAHUEN, L6; average of at least two determinations
Description: as §6

[4] = test system: amastigotes of L. donovani strain MHOM-ET-67/L82; assay: In vitro anti-L. donovani activity; type: cell-based, Leishmania donovani; settings: Leishmania donovani; average of at least two determinations
Description: as §6

[5] = test system: P. falciparum NF54 (chloroquine-sensitive); assay: In vitro anti-plasmodial activity, NF54; type: cell-based, Plasmodium falciparum; settings: Plasmodium falciparum, NF54; chloroquine-sensitive strain; read-out: IC50 P. falcip NF54
[6] = test system: P. falciparum K1 (chloroquine-resistant); assay: In vitro anti-plasmodial activity, K1; type: cell-based, Plasmodium falciparum; settings: Plasmodium falciparum, K1
Description: as §6

[7] = test system: rat skeletal myoblast L6-cells; assay: Cytotoxicity against L6 cells; type: cell-based; settings: Rattus norvegicus, L6; cytotoxicity; read-out: IC50 L6 Cells
Description: as §6

[8] = test system: T.b. brucei Lab 110 EATRO; assay: In vivo trypanocidal activity in mice, Lab 110 EATRO; settings: for curing of infected mice: i.p., 3 days
Description: (§1) The compounds were administered via the intraperitoneal route at doses ranging from 1.0 mg/kg/day to 25.0 mg/kg/day for 3 days unless otherwise noted. Pentamidine was used as the reference compound. All three of the tested compounds were effective in curing mice infected with the Lab 110 EATRO or KETRI 2002 strains at several doses.
(§2) The in vivo studies were conducted according to the procedures described previously.

[9] = test system: T.b. rhodesiense KETRI 2002; assay: In vivo trypanocidal activity in mice, KETRI 2002; settings: for curing of infected mice: KETRI 2002, i.p., 3 days; for Mean Survival: KETRI 2002, 10, 15, 25 mg/kg/day i.p. for 3 days (all doses)
Description: as §1, §2

[10] = test system: T.b. rhodesiense KETRI 2538; assay: In vivo trypanocidal activity in mice, KETRI 2538; settings: for Mean Survival: KETRI 2538; for curing of infected mice: drug-resistant KETRI 2538, i.p., 3 days
Description: as §1, §2

[11] = test system: T.b. rhodesiense KETRI 1992; assay: In vivo trypanocidal activity in mice, KETRI 1992; settings: KETRI 1992
[12] = test system: poly(dA-dT); assay: DNA thermal melting with poly(dA-dT); type: binding; settings: 1:5 compound to DNA base pair ratio; mean of at least two determinations
Description: (§3) In addition to the determination of the potency of the synthesized compounds against different strains of cell lines (Table 1), thermal melting experiments of these compounds were also conducted with poly(dA-dT) and calf thymus DNA (Table S1, supplementary file). […] The weaker binding to DNA (lower ΔTm values) compared to pentamidine might be attributed to the lower lipophilicity and higher PSA properties of these compounds since they would be expected to bind less favorably in the less polar environment of the minor grove of DNA as was reported for the aza-analogues of furamidine. […] Therefore, ability of these compounds to act at other potential targets cannot be ruled out.
(§4) The DNA binding affinity of the tested compounds was determined by measuring the change in mid-point of the thermal denaturation curves for a 1:5 compound to DNA base pair ratio as described previously. Each Tm value reported in Table S1 (supplementary file) represents the mean of at least two experimental determinations.

[13] = test system: calf thymus DNA; assay: DNA thermal melting with calf thymus DNA; type: binding; settings: 1:5 compound to DNA base pair ratio; mean of at least two determinations
Description: as §3, §4

[14] = test system: both strains of T. brucei and P. falciparum; assay: In vitro potency against both strains of T. brucei and P. falciparum; type: cell-based, Trypanosoma brucei; Plasmodium falciparum; settings: range over T.b. brucei, T.b. rhodesiense, P. falciparum NF54 and K1
Description: as §5

[15] = test system: T. b. brucei Lab 110 EATRO (pentamidine-sensitive); design: method as in PMID 19736009; settings: strain Lab 110; average of at least two determinations; cited from earlier work
[16] = test system: T. b. rhodesiense KETRi 243 (melarsoprol, pentamidine- and diminazene diaceturate-resistant); design: method as in PMID 19736009; settings: strain KETRI 243; average of at least two determinations; read-out: IC50 T.b. rhod; cited from earlier work
[17] = test system: Pneumocystis; design: method as in PMID 16801410; settings: 20 mg/kg and 40 mg/kg, cited from earlier work
[18] = test system: hemozoin formation; design: method as in PMID 15115412; settings: micromolar concentrations, ex vivo; cited from earlier work
[19] = human, in vivo; cited from earlier work
[20] = design: method as in PMID 24036514; settings: incubation in vitro with mouse liver microsomes; cited from earlier work
[21] = Table S1, from IC50 of Table 1, read-out: pIC50 P. falcip K1 (converted)
[22] = chloroquine-resistant strain, read-out: IC50 P. falcip K1

Row | SMILES | IC50 [1] [nM] | IC50 [2] [nM] | IC50 [3] [µM] | IC50 [4] [µM] | IC50 [5] [nM] | IC50 [6, 21] [nM] | IC50 [6, 22] [nM] | IC50 [7] [µM] | Mean Survival ([8]; 1.0 mg/kg/day i.p. for 3 days) [days] | No. of Mice Cured/Total (%) ([8]; 1.0 mg/kg/day i.p. for 3 days) | Mean Survival ([8]; 2.5 mg/kg/day i.p. for 3 days) [days] | No. of Mice Cured/Total (%) ([8]; 2.5 mg/kg/day i.p. for 3 days) | Mean Survival ([8]; 5 mg/kg/day i.p. for 3 days) [days] | Mean Survival ([8]; 10 mg/kg/day i.p. for 3 days) [days] | Mean Survival ([8]; 15 mg/kg/day i.p. for 3 days) [days] | curing of infected mice [8] | curing of infected mice [9] | Thermal Melting ΔTm Poly(dA-dT) [12] [C] | Thermal Melting ΔTm CT-DNA [13] [C] | IC50 [15] [nM] | further results
1 | N=C(N)c1ccc(NC(=O)CCCC(=O)Nc2ccc(C(=N)N)cc2)cc1 [Compound 5] | 8.99 | 95.9 | > 100 | > 100 | 2 | 2 | 2 | 69 | 6.0 | 0/3 | 11.3 | 0/3 | 10 | >30 | >30 | highly effective | highly effective | 11.4 | 5.6 | 9 | Mean Survival [9]: >30 days; Mean Survival ([10]; 10, 15, 25 mg/kg/day i.p. for 3 days (all doses)): >30 days; curing of infected mice [10]: highly efficacious; Mean Survival ([11]; 10 mg/kg/day i.p. for 3 days): 17.5 days; No. of Mice Cured/Total (%) ([11]; 10 mg/kg/day i.p. for 3 days): 0/3; Mean Survival ([11]; 15 mg/kg/day i.p. for 3 days): 14.5 days; No. of Mice Cured/Total (%) ([11]; 15 mg/kg/day i.p. for 3 days): 0/3; Mean Survival ([11]; 25 mg/kg/day i.p. for 3 days): 25 days; No. of Mice Cured/Total (%) ([11]; 25 mg/kg/day i.p. for 3 days): 0/3; IC50 [14]: 1 to 96 nM; IC50 [16]: 96 nM; survival versus pentamidine treated mice ([17]; same doses of pentamidine): improved survival curves; reductions in burden [17]: > 1000 fold; interference with hemozoin formation [18]: interfere with hemozoin formation
2 | CONC(=N)c1ccc(-c2ccc(-c3ccc(C(=N)NOC)cc3)o2)cc1.O=C(O)/C=C\C(=O)O [parafuramidine maleate] |  |  |  |  |  |  |  |  |  |  |  |  |  |  |  |  |  |  |  |  | toxicity that halted development [19]: nephrotoxicity
3 | N=C(N)c1ccc(NC(=O)CCCCC(=O)Nc2ccc(C(=N)N)cc2)cc1 [Compound 6] | 3 | 2 | > 100 | > 100 | 4 | 18 | 18 | > 100 | 6.7 | 0/3 | 10.0 | 0/3 | >30 | >30 | >30 | highly effective | highly effective | 14.4 | 8.7 | 3 | Mean Survival [9]: >30 days; Mean Survival ([10]; 5, 10, 15 mg/kg/day i.p. for 3 days (all doses)): >30 days; curing of infected mice [10]: highly efficacious; IC50 [14]: 1 to 96 nM; IC50 [16]: 2 nM
4 | NC(=NO)c1ccc(NC(=O)CCCC(=O)Nc2ccc(C(N)=NO)cc2)cc1 [Compound 4] | 7290 | 10000 | > 100 | > 100 |  | 3160 | 3160 | > 100 |  |  |  |  |  |  |  |  |  | 0.0 | 0.7 | 7300 | metabolism of the amidoxime moiety to the amidine function [20]: readily metabolized
